According to patent US20040044043A1, “Thiazolidinedione derivative and its use as antidiabetic” (priority 2000, published 2004):

How the values were obtained:
[1] = Solid state stability of the drug substance (storage, HPLC assay); assay type: physicochemical; details: 1 month
Method: The solid state stability of the drug substance was determined by storing approximately 1.0 g of the material in a glass bottle at a) 40° C./75% Relative Humidity (RH), open exposure, for 1 month and b) at 50° C., closed, for 1 month. The material was assayed by HPLC for final content and degradation products in both cases.

[2] = Solubility in water (visual, confirmed by HPLC assay of a saturated solution); assay type: physicochemical; details: thermodynamic from solid
Method: The visual solubility was confirmed by an HPLC assay of a saturated solution. Solubility: >100 mg/ml.

Degradation (HPLC degradation products) ([1]; 40° C./75% RH, open exposure): No significant degradation observed
HPLC assay for final content ([1]; 40° C./75% RH, open exposure): 99 % initial
Degradation (HPLC degradation products) ([1]; 50° C., closed): No significant degradation observed
HPLC assay for final content ([1]; 50° C., closed): 100 % initial
solubility [2]: > 100 mg/mL
Structure (SMILES): CCS(=O)(=O)O.CN(CCOc1ccc(CC2SC(=O)NC2=O)cc1)c1ccccn1 (centres unmarked) [Ethanesulfonate, 5-[4-[2-(N-methyl-N-(2-pyridyl)amino)ethoxy]benzyl]thiazolidine-2,4-dione ethanesulfonate]
